Data taken from patent US10768184B2, “Methods for increasing palatability of pet foodstuff” (MARS, INCORPORATED, priority 2013, dated 2020).

Legend:
dogs = assay: Dog panel feeding test, monadic exposure (palatability, gel intake), two single-breed panels; type: in vivo; details: 100 mM L-histidine
Protocol: Two different dog panels were used to compare the palatability of concentrations of linoleic acid. Each panel was made up of a single breed of dog; each panel being a different breed. The canine panels were used to compare the palatability of a range of concentrations of linoleic acid in a monadic exposure. The dose response tested 3 concentrations of linoleic acid ranging from 0.01% linoleic acid to 1% linoleic acid. All products (including the blank, 0% linoleic acid) contained 100 mM L-histidine as an ingestive/positive tastant to increase the baseline gel intake, enabling the identification of a potential negative impact of the linoleic acid concentration. Two different dog panels were used to compare the palatability of concentrations of oleic acid. Each panel was made up of a single breed of dog; each panel being a different breed. The canine panels were used to compare the palatability of a range of concentrations of oleic acid in a monadic exposure. The dose response tested 3 concentrations of oleic acid ranging from 0.01% oleic acid to 1% oleic acid. All products (including the blank, 0% oleic acid) contained 100 mM L-histidine as an ingestive/positive tastant to increase the baseline gel intake, enabling the identification of a potential negative impact of the oleic acid concentration.

cats = assay: Cat gel panel feeding test, monadic exposure (palatability, gel intake); type: in vivo
Protocol: A cat gel panel was used to compare the palatability of a range of concentrations of oleic acid in a monadic exposure. The dose response tested 8 concentrations of oleic acid ranging from 0.001% oleic acid to 1% oleic acid. All products (including the blank, 0% oleic acid) contained 25 mM L-histidine as an ingestive/positive tastant to increase the baseline gel intake, enabling the identification of a potential negative impact of the oleic acid concentration. A cat gel panel was used to compare the palatability of a range of concentrations of linoleic acid in a monadic exposure. The dose response tested 8 concentrations of linoleic acid ranging from 0.001% linoleic acid to 1% linoleic acid. All products (including the blank, 0% linoleic acid) contained 25 mM L-histidine as an ingestive/positive tastant to increase the baseline gel intake, enabling the identification of a potential negative impact of the linoleic acid concentration. A cat gel panel was used to compare the palatability of a range of concentrations of lauric acid in a monadic exposure. The dose response tested 5 concentrations of lauric acid ranging from 0.05% lauric acid to 1% lauric acid. All products (including the blank, 0% lauric acid) contained 25 mM L-histidine as an ingestive/positive tastant to increase the baseline gel intake, enabling the identification of a potential negative impact of the lauric acid concentration. A cat gel panel was used to compare the palatability of a range of concentrations of palmitic acid in a monadic exposure. The dose response tested 5 concentrations of palmitic acid ranging from 0.05% palmitic acid to 1% palmitic acid. All products (including the blank, 0% palmitic acid) contained 25 mM L-histidine as an ingestive/positive tastant to increase the baseline gel intake, enabling the identification of a potential negative impact of the palmitic acid concentration.

cat GPR120 = assay: Calcium-sensitive fluorescent dye (Fluo8) FLIPR assay, transiently transfected cells; type: cell-based; details: in vitro assays with the feline receptors
Protocol: These constructs were then transiently transfected into the CHO K1 immortalised cell line, and other commonly used cell lines using Lipofectamine 2000 and testing was performed to establish the successful expression of the target protein. The testing was carried out using a calcium sensitive fluorescent dye (Fluo8). Transfected cells were seeded into 384 well assay plates. By loading the cells with the dye and then challenging the cells with an agonist for the receptor the response of the cells could be recorded on the FLIPR^TETRA instrument by measuring the increase in fluorescence associated with intra-cellular calcium release, thus confirming the functional expression of the receptor. Suitable experimental controls eliminate any possibility that the response of the cells is non-specific or that the fluorescence increase is due to factors other than the release of intracellular calcium by the cells.

[1] = dog panel Breed 1, 1% fatty acid (highest tested)
[2] = 0.1% fatty acid in gel with 25 mM L-histidine
[3] = 0.6% fatty acid in gel with 25 mM L-histidine

SMILES | response compared to the blank (dogs; [1]) | response compared to the blank (dogs; dog panel Breed 2, 0.1% fatty acid) | intake compared to the blank (cats; [2]) | intake compared to the blank (cats; 0.2% (w/v) fatty acid in gel with 25 mM L-histidine) | intake compared to the blank (cats; 0.3% (w/v) fatty acid in gel with 25 mM L-histidine) | intake compared to the blank (cats; [3]) | activation of feline receptors in vitro (cat GPR120) | intake compared to the blank (cats; 1% fatty acid in gel with 25 mM L-histidine) | response compared to the blank (dogs; dog panel Breed 2, 3 concentrations tested, 0.01% to 1%) | intake compared to the blank (cats; higher concentrations (above 0.1%, up to 1%), 25 mM L-histidine) | intake compared to the blank (cats; any of the 5 concentrations tested, 0.05% to 1%, 25 mM L-histidine)
CCCCCCCC/C=C\CCCCCCCC(=O)O [oleic acid] | significant positive/ingestive response | significant positive/ingestive response | significantly higher intake | significantly higher intake | significantly higher intake | significantly higher intake | positive activation |  |  |  | 
CCCCCCCCCCCC(=O)O [lauric acid] |  |  | highest intake overall |  |  | significantly aversive/negative |  | significantly aversive/negative |  |  | 
CCCCC/C=C\C/C=C\CCCCCCCC(=O)O [linoleic acid] | significant positive/ingestive response |  | significantly higher intake |  |  |  | positive activation |  | smaller differences between the linoleic acid concentrations tested | trend for the higher concentrations to become aversive/negative | 
CCCCCCCCCCCCCCCC(=O)O [palmitic acid] |  |  |  |  |  |  |  |  |  |  | no significant difference
